{"source": "patent US12655162B2", "about": "“Highly efficient myeloperoxidase activatable imaging agents” (priority 2019, dated 2026)", "key": {"[1]": {"system": "MPO", "assay": "MR imaging of complete Freund's adjuvant (CFA) subcutaneous inflammation", "format": "in vivo, mouse", "conditions": "wild-type mice", "protocol": "The efficacy of mcMPO-Gd was validated in a well-established mouse model of subcutaneous inflammation induced by complete Freund's adjuvant (CFA). Six to ten weeks old female C57BL/6J mice (Jackson Laboratories, Bar Harbor, ME) and MPO-deficient mice were used for this experiment. The mice were injected subcutaneously with a 1:1 (v:v) emulsion of CFA:PBS (40 μL of total volume) on one forearm under isoflurane anesthesia. PBS (40 μL) was injected on the other side as control. After 24 h, gadolinium agents (mcMPO-Gd in PBS containing 10% DMSO and 20% N,N-dimethylacetamide, or MPO-Gd in PBS containing 5% DMSO, or Dotarem in PBS) were administered through tail vein injection and the mice imaged at 0 min, 15 min, 30 min, 45 min, and 60 min using serial T1-weighted imaging (TR:900 ms, TE: 13.59 ms, 0.156×0.156×0.5 mm Voxels) with chemical fat suppression and respiratory gating on a 4.7 T small animal MR scanner (Bruker, Cambridge, MA) with a 3-cm quadrature volume coil (Rapid MR International, Germany). Regions of interest (ROI) were drawn manually by a person blinded to the identity of the mice or imaging agent used, and the contrast-to-noise ratios (CNRs) were calculated as CNR=(SIlesion−SIskeletal muscle)/SDbackground.\n24 h after injection of a CFA emulsion into the shoulder of mice, contrast agents (0.3 mol/kg) were injected via the tail vein and the animals imaged."}, "[2]": {"assay": "Kinetic stability: transmetallation with Zn^2+ (relaxation rate R1 over 95 h)", "format": "physicochemical", "conditions": "1 mM agent, ZnCl2 2.5 mM, PBS, 40° C., 0.47 T", "experimental": "Am. Chem. Soc., 2010, 132:168-177; and Laurent et al, Invest. Radiol., 2001, 36:115-122). mcMPO-Gd or MPO-Gd (1 mM) was incubated with ZnCl2 (2.5 mM) in PBS at 40° C., and the relaxation rates (R1) were measured for 95 h using an inversion-recovery pulse sequence on the Bruker Minispec (Bruker Analytics, North Billerica, MA) at 0.47 T (20 MHz) at 40° C. The stability of mcMPO-Gd was evaluated by kinetic index (R1(t)/R1(t=0)=0.8) and thermodynamic index (R1(72 h)/R1(t=0)) and compared with MPO-Gd (see e.g., Rodriguez et al, J. Am. Chem. […] Org. Chem., 2006, 71:3332-3334). […] T1 relaxation time was measured as previously described at different time points (see e.g., Rodriguez et al, J. Am. Chem. Soc., 2010, 132:168-177). […] Radiol., 2001, 36:115-122) indicating high stability of mcMPO-Gd, consistent with a previous report on the kinetic stability of the macrocyclic GBCAs (see e.g., Laurent et al, Contrast Media Mol. Imaging 2006, 1:128-137)."}, "[3]": {"molecular_target": "T1, MPO (Mus musculus, UniProt P11247)", "T1 construct": "from tissue; host or cells: carotid / brachiocephalic plaque of living male Apoe-/- mice", "T1 sequence (P11247 139-718)": "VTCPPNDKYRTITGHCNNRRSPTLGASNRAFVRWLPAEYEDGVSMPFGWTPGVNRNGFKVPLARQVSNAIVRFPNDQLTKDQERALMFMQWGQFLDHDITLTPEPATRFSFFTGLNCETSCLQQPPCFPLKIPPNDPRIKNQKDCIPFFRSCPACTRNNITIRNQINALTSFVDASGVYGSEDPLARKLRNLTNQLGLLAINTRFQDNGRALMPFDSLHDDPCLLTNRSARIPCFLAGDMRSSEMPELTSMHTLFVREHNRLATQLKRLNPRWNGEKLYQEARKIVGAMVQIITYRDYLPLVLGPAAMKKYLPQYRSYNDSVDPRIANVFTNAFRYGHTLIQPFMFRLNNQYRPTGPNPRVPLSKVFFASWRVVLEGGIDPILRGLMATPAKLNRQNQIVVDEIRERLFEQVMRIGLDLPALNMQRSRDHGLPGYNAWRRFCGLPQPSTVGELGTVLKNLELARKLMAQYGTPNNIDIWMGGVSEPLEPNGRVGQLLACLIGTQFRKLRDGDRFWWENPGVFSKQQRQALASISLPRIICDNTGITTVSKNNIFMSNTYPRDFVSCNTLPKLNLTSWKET", "assay": "MR imaging of tandem stenosis (TS) model of atherosclerotic plaque instability, intervention with AZM198", "format": "in vivo", "conditions": "TS Apoe^−/− mice, 7 weeks after TS surgery, 0.3 mmol/kg i.v.", "source_text": "Six weeks after commencement of WD, tandem stenosis (TS) was introduced into the mice as previously described (see e.g., Rashid et al, Eur. Heart J., 2018, 39:3301-3310). Male Apoe^-/- mice were anesthetized with 4% isoflurane. The right common carotid artery was dissected from circumferential connective tissues. Two stenoses were placed by tying a 6-0 blue-braided polyester fiber suture (TICRON 0.7 Metric) around the exposed artery, with the distal stenosis 1 mm from the carotid artery bifurcation and the proximal stenosis 3 mm from the distal stenosis. Blood flow was measured before and after the addition of each ligature using a perivascular flow module (Transonic, TS420) and a 0.7 mm perivascular flow probe (Transonic MA0.7PSB). Flow for each ligature in the TS was defined as 70% of baseline flow after addition of the distal ligature and 20% of baseline flow after addition of the proximal ligature. […] The contrast-to-noise ratio (CNR) was calculated as follows: CNR=([…] muscle)/SDbackground. The mean CNRs of three consecutive slices in plaque with unstable phenotype and corresponding segments of the left carotid artery (plaque-free), in addition to 1-2 consecutive slices in the brachiocephalic trunk (stable plaque), were calculated. Segmental enhancement attributable to MPO was assessed by calculating the ΔCNR=CNRpost-contrast-CNRpre-contrast. […]"}, "[4]": {"conditions": "0.47 T, PBS, 40° C.; determined previously (Querol et al); cited from earlier work"}, "[5]": {"molecular_target": "bovine serum albumin (BSA) (Bos taurus, UniProt P02769)", "sequence (P02769 25-607)": "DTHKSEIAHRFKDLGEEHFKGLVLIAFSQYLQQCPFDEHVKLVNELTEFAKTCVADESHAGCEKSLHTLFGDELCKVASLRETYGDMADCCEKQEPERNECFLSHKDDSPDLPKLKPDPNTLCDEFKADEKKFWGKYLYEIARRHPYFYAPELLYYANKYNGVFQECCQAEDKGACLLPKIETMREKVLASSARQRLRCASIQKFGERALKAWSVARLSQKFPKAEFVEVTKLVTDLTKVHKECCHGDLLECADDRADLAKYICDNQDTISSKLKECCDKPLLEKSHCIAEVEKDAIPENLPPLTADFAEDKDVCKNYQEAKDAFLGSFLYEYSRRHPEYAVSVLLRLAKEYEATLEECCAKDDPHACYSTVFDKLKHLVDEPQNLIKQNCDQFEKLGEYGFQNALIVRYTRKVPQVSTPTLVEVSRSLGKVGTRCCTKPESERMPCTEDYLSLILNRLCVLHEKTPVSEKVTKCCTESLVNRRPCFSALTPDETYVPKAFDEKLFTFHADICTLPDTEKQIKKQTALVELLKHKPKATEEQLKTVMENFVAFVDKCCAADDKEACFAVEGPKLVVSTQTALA", "assay": "Binding to proteins (BSA) after activation by MPO, T1 relaxation", "format": "biochemical", "conditions": "for T1 (Before activation, ms): 0.5 mM agent, PBS; for T1 (Before activation, ms) / T1 (After activation, ms) / T1 change(%): MPO/GOX, 40° C.; for T1 (After activation, ms) / T1 change(%): 1 h", "experimental": "The capability of mcMPO-Gd and MPO-Gd to bind to bovine serum albumin (BSA) after activation by MPO was evaluated. […] The relaxation rates were measured as described above."}, "[6]": {"conditions": "transmetallation with Zn^2+, cited from earlier work"}}}
{"molecule": "O=C([O-])CN(CCN(CC(=O)[O-])CC(=O)NCCc1c[nH]c2ccc(O)cc12)CCN(CC(=O)[O-])CC(=O)NCCc1c[nH]c2ccc(O)cc12.[Gd+3]", "note": "[MPO-Gd, bis-5-HT-Gd-DTPA]", "values": [{"measurement": "increase in activation ratio (AR=CNR(post-contrast)/CNR(first post-contrast))", "setting": "[1]; 60 min", "value": 2, "unit": "fold"}, {"measurement": "R1(t=72 h)/R1(t=0) (long-term / thermodynamic index)", "setting": "[2]", "value": 0.76}, {"measurement": "t (min) for R1(t)/R1(t=0) = 0.8 (kinetic / ratio index)", "setting": "[2]", "value": 2866, "unit": "min"}, {"measurement": "ΔCNR in unstable plaque", "setting": "[3]", "value": 15.0}, {"measurement": "relaxivity (r1)", "setting": "[4]", "value": 4.3, "unit": "mM⁻¹ s⁻¹"}, {"measurement": "improvement in T1 shortening in the presence of BSA", "setting": "[5]; BSA vs no BSA, after MPO activation", "value": 22, "unit": "%"}, {"measurement": "T1 (Before activation, ms)", "setting": "[5]; BSA", "value": 381, "unit": "ms"}, {"measurement": "T1 (After activation, ms)", "setting": "[5]; BSA", "value": 246, "unit": "ms"}, {"measurement": "T1 change(%)", "setting": "[5]; BSA", "value": 54, "unit": "%"}, {"measurement": "T1 (Before activation, ms)", "setting": "[5]; No BSA", "value": 375, "unit": "ms"}, {"measurement": "T1 (After activation, ms)", "setting": "[5]; No BSA", "value": 283, "unit": "ms"}, {"measurement": "T1 change(%)", "setting": "[5]; No BSA", "value": 32, "unit": "%"}]}
{"molecule": "CNC[C@H](O)[C@@H](O)[C@H](O)[C@H](O)CO.O=C([O-])CN1CCN(CC(=O)[O-])CCN(CC(=O)O)CCN(CC(=O)[O-])CC1.[Gd+3]", "note": "[Dotarem, gadoterate meglumine]", "values": [{"measurement": "contrast-to-noise ratio (CNR) over time", "setting": "[1]; i.v., over 60 min", "value": "decreased rapidly over time"}]}
{"molecule": "CNC(=O)CN(CCN(CCN(CC(=O)[O-])CC(=O)NC)CC(=O)[O-])CC(=O)[O-].[Gd+3]", "note": "[BMA—DTPA—Gd, BMA-Gd-DTPA]", "values": [{"measurement": "R1(t=72 h)/R1(t=0) (long-term index)", "setting": "[6]; literature value (Laurent et al)", "value": 0.09}, {"measurement": "t (min) for R1(t)/R1(t=0) = 0.8", "setting": "[6]; literature value", "value": "50 to 60", "unit": "min"}]}
